Key:
[1] = molecular target: T1, Human PDGFRβ, cytoplasmic domain (GST-PDGFRβ) (Homo sapiens, UniProt P09619); test: Human PDGFRβ biochemical inhibition assay (off-chip Mobility Shift Assay)
T1 construct: made in house
In short: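 GST-tagged cytoplasmic domain (aa 557-1106) from baculovirus was incubated 1 h at room temperature with compound, CSKtide, ATP at Km and Mg²⁺ in HEPES buffer, pH 7.5. Phosphorylated and unphosphorylated peptide were separated by off-chip mobility shift, and the product ratio P/(P+S) gave percent inhibition.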

[2] = molecular target: T2, Human PDGFRα, cytoplasmic domain (GST-PDGFRα) (Homo sapiens, UniProt P16234); test: Human PDGFRα biochemical inhibition assay (off-chip Mobility Shift Assay)
T2 construct: made in house
T2 sequence (P16234 550-1089 T674I): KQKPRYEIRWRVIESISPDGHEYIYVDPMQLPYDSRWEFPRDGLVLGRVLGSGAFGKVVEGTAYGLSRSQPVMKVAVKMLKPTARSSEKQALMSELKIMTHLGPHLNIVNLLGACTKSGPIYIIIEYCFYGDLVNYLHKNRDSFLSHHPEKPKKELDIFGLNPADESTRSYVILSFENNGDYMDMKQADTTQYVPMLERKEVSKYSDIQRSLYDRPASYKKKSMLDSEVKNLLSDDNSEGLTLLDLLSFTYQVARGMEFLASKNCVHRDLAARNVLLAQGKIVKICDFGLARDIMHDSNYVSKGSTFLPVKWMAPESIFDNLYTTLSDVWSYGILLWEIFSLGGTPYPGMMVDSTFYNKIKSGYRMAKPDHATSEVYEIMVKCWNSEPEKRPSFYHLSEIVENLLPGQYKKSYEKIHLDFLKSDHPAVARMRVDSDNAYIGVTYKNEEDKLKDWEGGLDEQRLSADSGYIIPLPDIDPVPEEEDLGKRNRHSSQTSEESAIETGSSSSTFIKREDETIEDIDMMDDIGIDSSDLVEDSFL

T1 sequence (P09619 with tags, fused parts or gaps): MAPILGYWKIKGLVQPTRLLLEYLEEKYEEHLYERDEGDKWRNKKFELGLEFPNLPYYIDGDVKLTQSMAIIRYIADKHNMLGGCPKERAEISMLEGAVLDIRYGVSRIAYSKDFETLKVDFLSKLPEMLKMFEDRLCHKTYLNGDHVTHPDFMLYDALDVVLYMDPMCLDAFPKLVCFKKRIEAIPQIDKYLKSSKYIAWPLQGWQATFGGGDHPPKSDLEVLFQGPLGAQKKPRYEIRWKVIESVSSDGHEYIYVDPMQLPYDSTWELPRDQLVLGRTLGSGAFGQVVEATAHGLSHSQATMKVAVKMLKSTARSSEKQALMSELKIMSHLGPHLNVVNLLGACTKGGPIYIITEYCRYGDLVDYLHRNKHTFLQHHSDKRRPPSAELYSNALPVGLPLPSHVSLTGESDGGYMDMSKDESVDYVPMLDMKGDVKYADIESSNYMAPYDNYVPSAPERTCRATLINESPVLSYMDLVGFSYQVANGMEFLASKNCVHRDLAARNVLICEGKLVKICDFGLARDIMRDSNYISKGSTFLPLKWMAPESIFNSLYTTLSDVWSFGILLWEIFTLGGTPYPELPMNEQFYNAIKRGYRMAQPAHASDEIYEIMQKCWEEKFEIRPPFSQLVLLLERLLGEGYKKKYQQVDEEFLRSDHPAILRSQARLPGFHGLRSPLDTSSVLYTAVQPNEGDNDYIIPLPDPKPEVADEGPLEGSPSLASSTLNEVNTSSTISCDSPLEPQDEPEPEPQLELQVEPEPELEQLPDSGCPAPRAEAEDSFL

Cc1c[nH]c2ncc(N[C@@H](C)c3cccc(NC(=O)c4cnc(C(F)(F)F)s4)c3)nc12 [Compound 572, (S)-N-(3-(1-((7-methyl-5H-pyrrolo[2,3-b]pyrazin-2-yl)amino)ethyl)phenyl)-2-(trifluoromethyl)thiazole-5-carboxamide]
IC50 [1]: 300 to 1000 nM | IC50 [2]: ≥ 1000 nM

CCn1cc2ncc(N[C@@H](C)c3cccc(NC(=O)c4ccc(C(F)F)s4)c3)nc2n1 [Compound 292, (S)-5-(difluoromethyl)-N-(3-(1-((2-ethyl-2H-pyrazolo[3,4-b]pyrazin-6-yl)amino)ethyl)phenyl)thiophene-2-carboxamide]
IC50 [1]: < 300 nM | IC50 [2]: < 300 nM

CCn1cc2ncc(N[C@@H](C)c3cc(NC(=O)Cc4ccccc4)ccc3F)nc2n1 [Compound 637, (S)-N-(3-(1-((2-ethyl-2H-pyrazolo[3,4-b]pyrazin-6-yl)amino)ethyl)-4-fluorophenyl)-2-phenylacetamide]
IC50 [1]: < 300 nM | IC50 [2]: < 300 nM

CC(C)Cn1ccc(C(=O)Nc2cccc([C@H](C)Nc3cnc4cnn(C)c4n3)c2)n1 [Compound 157, (S)-1-isobutyl-N-(3-(1-((1-methyl-1H-pyrazolo[3,4-b]pyrazin-6-yl)amino)ethyl)phenyl)-1H-pyrazole-3-carboxamide]
IC50 [1]: < 300 nM | IC50 [2]: < 300 nM

Cc1cncc(C(=O)Nc2cccc([C@H](C)Nc3cnc4cnn(C)c4n3)c2)c1 [Compound 8, (S)-5-methyl-N-(3-(1-((1-methyl-1H-pyrazolo[3,4-b]pyrazin-6-yl)amino)ethyl)phenyl)nicotinamide]
IC50 [1]: < 300 nM | IC50 [2]: < 300 nM

COc1ccc(NC(=O)c2cncc(C)c2)cc1CNc1cnc2ccccc2n1 [Compound 43, N-(4-methoxy-3-((quinoxalin-2-ylamino)methyl)phenyl)-5-methylnicotinamide]
IC50 [1]: ≥ 1000 nM | IC50 [2]: 300 to 1000 nM

C[C@H](Nc1cnc2cnn(C)c2n1)c1cccc(NC(=O)c2cncc(C3CC3)c2)c1 [Compound 105, (S)-5-cyclopropyl-N-(3-(1-((1-methyl-1H-pyrazolo[3,4-b]pyrazin-6-yl)amino)ethyl)phenyl)nicotinamide]
IC50 [1]: < 300 nM | IC50 [2]: < 300 nM

Cc1cc(C(=O)Nc2cccc([C@H](C)Nc3cnc4[nH]cc(-c5cnn(C)c5)c4n3)c2)cnc1N1CCCC1 [Compound 577, (S)-5-methyl-N-(3-(1-((7-(1-methyl-1H-pyrazol-4-yl)-5H-pyrrolo[2,3-b]pyrazin-2-yl)amino)ethyl)phenyl)-6-(pyrrolidin-1-yl)nicotinamide]
IC50 [1]: < 300 nM | IC50 [2]: < 300 nM

CCn1cc2ncc(N[C@@H](C)c3cccc(NC(=O)c4ccc(Cn5ccnc5)c(C)c4)c3)nc2n1 [Compound 435, (S)-4-((1H-imidazol-1-yl)methyl)-N-(3-(1-((2-ethyl-2H-pyrazolo[3,4-b]pyrazin-6-yl)amino)ethyl)phenyl)-3-methylbenzamide]
IC50 [1]: < 300 nM | IC50 [2]: < 300 nM

CCn1cc2ncc(N[C@@H](C)c3cccc(NC(=O)Cc4ccc(F)c(Cl)c4)c3)nc2n1 [Compound 631, (S)-2-(3-chloro-4-fluorophenyl)-N-(3-(1-((2-ethyl-2H-pyrazolo[3,4-b]pyrazin-6-yl)amino)ethyl)phenyl)acetamide]
IC50 [1]: < 300 nM | IC50 [2]: < 300 nM

C[C@H](Nc1cnc2cnn(C)c2n1)c1cc(NC(=O)c2ccc(OC(F)F)nc2)ccc1F [Compound 202, (S)-6-(difluoromethoxy)-N-(4-fluoro-3-(1-((1-methyl-1H-pyrazolo[3,4-b]pyrazin-6-yl)amino)ethyl)phenyl) nicotinamide]
IC50 [1]: < 300 nM | IC50 [2]: < 300 nM

C[C@H](Nc1cnc2cnn(C)c2n1)c1cccc(NC(=O)c2cc(C(C)(C)C)on2)c1 [Compound 143, (S)-5-(tert-butyl)-N-(3-(1-((1-methyl-1H-pyrazolo[3,4-b]pyrazin-6-yl)amino)ethyl)phenyl)isoxazole-3-carboxamide]
IC50 [1]: < 300 nM | IC50 [2]: < 300 nM

CCn1cc2ncc(N[C@@H](C)c3cc(NC(=O)Cc4ccc(C(C)C)cn4)ccc3C)nc2n1 [Compound 710, (S)-N-(3-(1-((2-ethyl-2H-pyrazolo[3,4-b]pyrazin-6-yl)amino)ethyl)-4-methylphenyl)-2-(5-isopropylpyridin-2-yl) acetamide]
IC50 [1]: ≥ 1000 nM | IC50 [2]: < 300 nM

Cc1cncc(C(=O)Nc2cccc([C@H](C)Nc3cnc4ccn(C)c4n3)c2)c1 [Compound 1, (S)-5-methyl-N-(3-(1-((5-methyl-5H-pyrrolo[2,3-b]pyrazin-3-yl)amino)ethyl)phenyl)nicotinamide]
IC50 [1]: < 300 nM | IC50 [2]: < 300 nM

CCn1cc2ncc(N[C@@H](C)c3cc(NC(=O)Cc4cc(C)c(Cl)cn4)ccc3C)nc2n1 [Compound 696, (S)-2-(5-chloro-4-methylpyridin-2-yl)-N-(3-(1-((2-ethyl-2H-pyrazolo[3,4-b]pyrazin-6-yl)amino)ethyl)-4-methylphenyl)acetamide]
IC50 [1]: < 300 nM | IC50 [2]: < 300 nM

CCn1cc2ncc(N[C@@H](C)c3cc(NC(=O)c4ccc(N5CCN(C)CC5)c(C)c4)ccc3F)nc2n1 [Compound 412, (S)-N-(3-(1-((2-ethyl-2H-pyrazolo[3,4-b]pyrazin-6-yl)amino)ethyl)-4-fluorophenyl)-3-methyl-4-(4-methylpiperazin-1-yl)benzamide]
IC50 [1]: < 300 nM | IC50 [2]: < 300 nM

CCn1cc2ncc(N[C@@H](C)c3cccc(NC(=O)c4ccc(OC)c(F)c4)c3)nc2n1 [Compound 359, (S)-N-(3-(1-((2-ethyl-2H-pyrazolo[3,4-b]pyrazin-6-yl)amino)ethyl)phenyl)-3-fluoro-4-methoxybenzamide]
IC50 [1]: < 300 nM | IC50 [2]: < 300 nM

CCn1cc2ncc(N[C@@H](C)c3cccc(NC(=O)c4cnc(OCC5CC5)c(C)c4)c3)nc2n1 [Compound 315, (S)-6-(cyclopropylmethoxy)-N-(3-(1-((2-ethyl-2H-pyrazolo[3,4-b]pyrazin-6-yl)amino)ethyl)phenyl)-5-methylnicotinamide]
IC50 [1]: < 300 nM | IC50 [2]: < 300 nM

C[C@H](Nc1cnc2cnn(C)c2n1)c1cccc(NC(=O)c2cnc3ccn(C)c3c2)c1 [Compound 46, (S)-1-methyl-N-(3-(1-((1-methyl-1H-pyrazolo[3,4-b]pyrazin-6-yl)amino)ethyl)phenyl)-1H-pyrrolo[3,2-b] pyridine-6-carboxamide]
IC50 [1]: < 300 nM | IC50 [2]: < 300 nM

Cc1cncc(C(=O)Nc2cccc([C@H](C)Nc3cnc4cnn(-c5cnn(C)c5)c4n3)c2)c1 [Compound 186, (S)-5-methyl-N-(3-(1-((1-(1-methyl-1H-pyrazol-4-yl)-1H-pyrazolo[3,4-b]pyrazin-6-yl)amino)ethyl)phenyl) nicotinamide]
IC50 [1]: < 300 nM | IC50 [2]: < 300 nM

Cc1cncc(C(=O)Nc2cc(F)cc(C(C)Nc3cnc4cnn(C)c4n3)c2)c1 (stereo not drawn) [Compound 170, N-(3-fluoro-5-(1-((1-methyl-1H-pyrazolo[3,4-b]pyrazin-6-yl)amino)ethyl)phenyl)-5-methylnicotinamide]
IC50 [1]: 300 to 1000 nM | IC50 [2]: < 300 nM

CCn1cc2ncc(N[C@@H](C)c3cccc(NC(=O)c4cncc(Cl)c4)c3)nc2n1 [Compound 281, (S)-5-chloro-N-(3-(1-((2-ethyl-2H-pyrazolo[3,4-b]pyrazin-6-yl)amino)ethyl)phenyl) nicotinamide]
IC50 [1]: 300 to 1000 nM | IC50 [2]: < 300 nM

Cc1c[nH]c2ncc(N[C@@H](C)c3cccc(NC(=O)c4cc(C(F)(F)F)nn4C)c3)nc12 [Compound 562, (S)-1-methyl-N-(3-(1-((7-methyl-5H-pyrrolo[2,3-b]pyrazin-2-yl)amino)ethyl)phenyl)-3-(trifluoromethyl)-1H-pyrazole-5-carboxamide]
IC50 [1]: 300 to 1000 nM | IC50 [2]: < 300 nM

C[C@H](Nc1cnc2cnn(C)c2n1)c1cccc(NC(=O)c2ccc3c(c2)SCCN3)c1 [Compound 79, (S)-N-(3-(1-((1-methyl-1H-pyrazolo[3,4-d]pyrazin-6-yl)amino)ethyl)phenyl)-3,4-dihydro-2H-benzo[b] [1,4]thiazine-7-carboxamide]
IC50 [1]: < 300 nM | IC50 [2]: < 300 nM

CCn1cc2ncc(N[C@@H](C)c3cccc(NC(=O)c4ccc(CN5CCC5)c(Cl)c4)c3)nc2n1 [Compound 486, (S)-4-(azetidin-1-ylmethyl)-3-chloro-N-(3-(1-((2-ethyl-2H-pyrazolo[3,4-b]pyrazin-6-yl)amino)ethyl)phenyl)benzamide]
IC50 [1]: < 300 nM | IC50 [2]: < 300 nM

CCn1cc2ncc(N[C@@H](C)c3cccc(NC(=O)Cc4ccccc4)c3)nc2n1 [Compound 633, (S)-N-(3-(1-((2-ethyl-2H-pyrazolo[3,4-b]pyrazin-6-yl)amino)ethyl)phenyl)-2-phenylacetamide]
IC50 [1]: 300 to 1000 nM | IC50 [2]: < 300 nM

CCn1cc2ncc(N[C@@H](C)c3cccc(NC(=O)c4cnc(OC)c(C)c4)c3)nc2n1 [Compound 290, (S)-N-(3-(1-((2-ethyl-2H-pyrazolo[3,4-b]pyrazin-6-yl)amino)ethyl)phenyl)-6-methoxy-5-methylnicotinamide]
IC50 [1]: < 300 nM | IC50 [2]: < 300 nM

COc1ccc(C(=O)Nc2cccc([C@H](C)Nc3cnc4cnn(C)c4n3)c2)cn1 [Compound 122, (S)-6-methoxy-N-(3-(1-((1-methyl-1H-pyrazolo[3,4-b]pyrazin-6-yl)amino)ethyl)phenyl)nicotinamide]
IC50 [1]: 300 to 1000 nM | IC50 [2]: < 300 nM

CCn1cc2ncc(N[C@@H](C)c3cccc(NC(=O)Cc4cccc(F)c4F)c3)nc2n1 [Compound 454, (S)-2-(2,3-difluorophenyl)-N-(3-(1-((2-ethyl-2H-pyrazolo[3,4-b]pyrazin-6-yl)amino)ethyl)phenyl)acetamide]
IC50 [1]: 300 to 1000 nM | IC50 [2]: < 300 nM

Cc1cncc(C(=O)Nc2cccc([C@H](C)Nc3cnc4ccc(-c5cnn(C)c5)cc4n3)c2)c1 [Compound 42, (S)-5-methyl-N-(3-(1-((7-(1-methyl-1H-pyrazol-4-yl)quinoxalin-2-yl)amino)ethyl)phenyl)nicotinamide]
IC50 [1]: < 300 nM | IC50 [2]: < 300 nM

Source: US20230102554A1 (GB002, INC., priority 2019, published 2023)
